Measured values reported in article PMC8070745, “FEN1 Blockade for Platinum Chemo-Sensitization and Synthetic Lethality in Epithelial Ovarian Cancers” (Cancers, 2021).

Key:
[1] = tested on: PEO1R spheroids; experiment: 3D spheroid assay, PEO1R; format: cell-based, human; settings: vs PEO1 spheroids
Protocol: (§1) with ice cold PBS and fixed in 70% ethanol for 1h at -20°C. After removal of the fixative solution by centrifugation, cells were stained with 2 µg/ml of phospho-Histone (γH2AX) Ser139 (16202A, Millipore, UK) to detect DSBs.
(§2) Cell cycle progression: Cells were treated with 20 µg/ml RNase A (12091021, Invitrogen) and then 10 µg/ml Propidium Iodide (P4170, Sigma Aldrich) was added to determine the cell cycle distribution. The samples were analysed on a Beckman-Coulter FC500 flow cytometer using a 488nm laser for excitation and emission data for PI collected using a 620nm bandpass filter (FL3) and a 525nm bandpass filter (FL1) for FITC-anti-phospho-Histone H2A.X.
(§3) Apoptosis detection: Annexin V detection kit (556547, BD Biosciences) was used to quantify apoptotic cells. Briefly, cells were trypsinized, washed with PBS and the cellular pellet was re-suspended in Anexin Binding Buffer (1×). […] All the samples were analysed on a Beckman-Coulter FC500 flow cytometer. The percentage of apoptotic cells was determined (late apoptotic = FITC-Annexin V positive, PI positive early apoptotic = FITC-Annexin V positive, PI negative; live cells = FITC-Annexin V negative, PI negative) and compared for untreated and treated samples. […]
(§4) To quantify cell viability, LIVE/DEAD Viability/Cytotoxicity Kit (L3224, Thermo Fisher Scientific) was used. […] At least 10 spheroids were measured. […]

[2] = tested on: PEO1R cells; experiment: Clonogenic assay, PEO1R; format: cell-based, human; settings: vs parental PEO1 cells
Protocol: (§5) Clonogenic assay: In the clonogenic assay (colony formation assays), 32 cells/cm2 were seeded in 6-well plates and left at 37°C in a 5% CO2 atmosphere. Cisplatin (5µM) and/or FEN1i (10µM) and/or Importazole (5 µM, Selleckem, S8446 ) were added at the indicated concentrations and the plates were left at 37 °C in a 5% CO 2 atmosphere for 14 days. Later, the plates were washed with PBS, fixed and stained with a crystal violet, acetic acid and methanol solution and colonies were counted. […]

[3] = tested on: PEO4 cells; experiment: Clonogenic assay, PEO4; format: cell-based, human
Protocol: as §5

[4] = tested on: PEO1 cells; experiment: Clonogenic assay, PEO1; format: cell-based, human
Protocol: as §5

[5] = tested on: PEO1 spheroids; experiment: 3D spheroid assay, PEO1; format: cell-based, human; settings: PEO1 spheroids vs PEO4 spheroids
Protocol: as §1, §2, §3, §4

[6] = tested on: A2780cis cells; experiment: Clonogenic assay, A2780cis; format: cell-based, human
Protocol: as §5

[7] = tested on: A2780cis cells; experiment: Annexin V apoptosis detection, A2780cis; format: cell-based, human; settings: FEN1i plus cisplatin
Protocol: Apoptosis detection: Annexin V detection kit (556547, BD Biosciences) was used to quantify apoptotic cells. Briefly, cells were trypsinized, washed with PBS and the cellular pellet was re-suspended in Anexin Binding Buffer (1×). Following, FITC Anexin V and Propidium Iodide were added to the cells. After incubation, Anexin binding Buffer (1×) was added to each tube. All the samples were analysed on a Beckman-Coulter FC500 flow cytometer. The percentage of apoptotic cells was determined (late apoptotic = FITC-Annexin V positive, PI positive early apoptotic = FITC-Annexin V positive, PI negative; live cells = FITC-Annexin V negative, PI negative) and compared for untreated and treated samples. Graphical representation and statistical analysis was performed in GraphPad Prism 7 (GraphPad, La Jolla, USA).
3D Spheroid assays: A2780_control and A2780 FEN1_ KO as well as A2780cis_control and A2780cis FEN1_ KO cells were seeded at 4500 cells/cm2 density in ultra-low attachment 6-well plates (174932, Thermo Fisher Scientific) and cultured in 3D Tumorsphere Medium (C28070, PromoCell, UK) at 37°C in a 5% CO2 atmosphere. Cells were keep in culture for 7-10 days, toping up with fresh medium every two days until spheroids structures were formed.

[8] = tested on: XRCC1 deficient HeLa cells; experiment: FEN1 inhibitor cytotoxicity, XRCC1 deficient HeLa; format: cell-based; settings: vs HeLa control

Structure (SMILES) | spheroid sensitivity to FEN1 inhibitor [1] | sensitivity to FEN1 inhibitor [2] | effect on cisplatin cytotoxicity ([3]; FEN1i plus cisplatin) | sensitivity to FEN1 inhibitor ([4]; BRCA2 deficient PEO1 vs BRCA2 proficient PEO4) | spheroid sensitivity to FEN1 inhibitor [5] | cytotoxicity of FEN1i monotherapy ([6]; 10 µM) | effect on cisplatin cytotoxicity ([6]; FEN1i 10 µM plus cisplatin) | apoptosis [7] | sensitivity to FEN1 inhibitor [8] | spheroid sensitivity to cisplatin [1] | sensitivity to cisplatin [2] | cisplatin sensitivity [3] | cisplatin sensitivity [4] | cisplatin sensitivity [6]
Cc1csc2c1c(=O)n(O)c(=O)n2-c1ccccc1 [PTPD, 3-hydroxy-5-methyl-1-phenylthieno [2,3 d]pyrimidine-2,4(1H,3H)-dione] | resistant | resistant | potentiated cisplatin cytotoxicity | more sensitive to FEN1 inhibition in comparison to PEO4 cells | hypersensitive to FEN1 inhibition | non-toxic | significantly enhanced the cytotoxicity of cisplatin | accumulation of apoptotic cells | did not observe any increased sensitivity |  |  |  |  | 
N.N.[Cl][Pt][Cl] [cisplatin] |  |  |  |  |  |  |  |  |  | resistant | resistant | cisplatin resistant | cisplatin sensitive | cisplatin-resistant
